One substance from patent US20250099622A1, “COMPOSITIONS AND METHODS FOR EXPRESSING THERAPEUTICS” (priority 2022, published 2025) can be followed below.

“Also recorded” adds a separate entry of the source.

In series [1] the test system is NIH3T3 cells (cGMP secreted). Nature of the series: EC50 for CNP-Fc constructs, cGMP ELISA of NIH3T3 supernatant. Format: cell-based. The settings on record: NIH3T3, 30 minutes, 1.8 mM IBMX, cGMP secreted by the cells; FIG. 25B. The protocol: EC50 for CNP-Fc described herein were measured by ELISA. 2.5E+05 NIH3T3 cells/well were plated. […] After 30 minutes, supernatant was collected for cGMP determined via ELISA. FIG. 25A illustrates a standard curve of cGMP.
A general note: ELISA stands for enzyme-linked immunosorbent assay.

The subject of series [2] is intraocular pressure (IOP). Nature of the series: Rat partial optic nerve transection (pONT) model: intraocular pressure (Tonolab tonometry). It counts as in vivo, rat (Dark Agouti). Here is the method: (§1) Using an experimental rat model of partial optic nerve transection (pONT), effects of Adeno-associated virus (AAV) CNP peptide (AAV-P) and protein Fc fusion (AAV-FP) on: retinal ganglion cell (RGC) apoptosis/stress in vivo was assessed using detection of apoptosing retinal cells (DARC) imaging; intraocular inflammation in vivo using Optical Coherence Tomography (OCT) imaging; intraocular pressure (IOP) in vivo using Tonolab tonometry; RGC survival histologically using immunohistochemistry on retinal whole mounts; and retinal microglial activity histologically using immunohistochemistry on retinal whole mounts.
(§2) In total, seventy-two male Dark Agouti (DA) rats aged 8-10 weeks were used in this study. The seventy-two animals were randomly divided into 3 categories.
(§3) Intravitreal injections (IVT, 4 μL) were given under general anesthesia (GA), according to the categories, and administered to the left eye (pONT eye) only once using a 34-gauge Hamilton needle at day 0 after BL imaging. pONT was performed at week 3 in Categories 1 and 2. In Category 3, pONT was performed soon after baseline imaging.
Partial optic nerve transection (pONT) surgery was performed under GA at week 3 in categories 1 and 2. […]
IOP. […] Ten IOP readings were collected from each eye of each animal at each time point.
IOP measurements were performed three times a week at weeks 1, 2, and 4. DARC spots on in vivo images were automatically counted by an algorithm developed and validated in the Cordeiro lab. […] RBPMS^+ RGCs in retinal whole mounts were automatically counted and analyzed by a recently developed and validated algorithm in the Cordeiro lab. […] The morphology of microglia in retinal whole mounts was automatically analyzed by a recently developed and validated machine learning approach in the Cordeiro lab.
IOP analysis in the both Fc4-CNP36 (FP) and AAV treatment. […] The IOP data was analyzed by subtracting OD (the right eye) from OS (the left eye) in each animal at each time point. […] FIG. 16A illustrates animal IOP monitored during the course of the study. […]

The subject of series [3] is apoptosing retinal cells (RGC apoptosis). Description: Rat pONT model: DARC imaging of RGC apoptosis. Format: in vivo, rat (Dark Agouti). Here is the method:
as §1, §2, §3
Partial optic nerve transection (pONT) surgery was performed under GA at week 3 in categories 1 and 2. In category 3, pONT surgery was performed on day 0 after BL imaging. […]
DARC/OCT. under GA, DARC/OCT imaging was conducted at baseline (BL), weeks 1, 2, and 4 in categories 1 and 2. pONT was performed at week 3. […] Briefly, fluorescently labelled annexin 776 (6 mg/mL, 40 μL) was […] administrated 2 hours before DARC imaging and then assessed with a confocal scanning laser ophthalmoscope (cSLO). […]
IOP measurements were performed three times a week at weeks 1, 2, and 4. DARC spots on in vivo images were automatically counted by an algorithm developed and validated in the Cordeiro lab. […] RBPMS^+ RGCs in retinal whole mounts were automatically counted and analyzed by a recently developed and validated algorithm in the Cordeiro lab. […] The morphology of microglia in retinal whole mounts was automatically analyzed by a recently developed and validated machine learning approach in the Cordeiro lab. […]

Series [4] deals with retinal ganglion cells (RGC). Nature of the series: Rat pONT model: RGC survival, RBPMS+ RGCs in retinal whole mounts. It counts as in vivo, rat (Dark Agouti).
Series [5] is described as follows: Rat pONT model: ELISA of Fc4-CNP36 / CNP36 in ocular homogenate and serum. The settings on record: after IVT of FP protein, terminal samples; FIG. 18.
Description: Make a mixture of RIPA and the protease inhibitor was prepared by adding one tablet of protease inhibitor in 10 mL of RIPA buffer. Ocular tissue was measured for the amount of buffer needed. For every 1 mg of tissue, 10 μL of buffer was added. The tube containing the tissue was sonicated for 20 seconds on ice followed by 20 seconds of rest on ice. The sonication and chilling on ice was repeated two more times making 3 cycles in total.
After complete homogenization, the tubes were placed on an orbital shaker in cold room for two hours. After two hours, the tubes were centrifuged for five minutes at 13,000 rpm. The supernatants were collected and stored store at −80° C.
Animals were culled at week 4 in categories 1 and 2, and at week 1 in category 3. Before culling, a blood sample (at least 2 mL) was collected by cardiac puncture under the terminal procedure, centrifuged to collect serum, and stored at −80° C.
The remaining three blocks (blocks 4-6) of animals from each category (36 rats in total) were used for protein analysis. After culling, both eyes from each animal were enucleated and snap-frozen with liquid nitrogen, cryogenically homogenized with mortar and pestle and stored at −80° C. until protein analysis.
A serial dilution of CNP-Fc can be used in the assay. The detection range of CNP-Fc concentration in this assay can be from 0.78 to 50 ng/mL. […]

Consider “AMI263: purified fusion protein Fc4-(G4S)4-CNP36 (IgG4 Fc), SEQ ID NO: 135”, for which the “EC50 values (rank order)” value in series [1] is “CNP-22 ≡Fc4-CNP36>Aflibercept-Fc4-CNP36>Fc1-CNP36>>Fc4-CNP22”. Moreover, in series [2] (IVT 2, 20 and 80 μg/eye of affinity purified FP), the “effect on IOP” value is given as “significant effect on IOP reduction”. Further, the “dose at which IOP reduction reached maximal” value in series [2] (IVT, range 2-80 μg/eye) worked out at 2 μg/eye. The “p, reduction in the IOP” value in series [2] (all FP concentrations (2, 20, 80 μg/eye IVT), Day 1 compared to baseline (Day 0) or Day 7 after pONT) is recorded as under 0.01. Moreover, the “p, DARC count FP (High) versus AAV-Negative” value in series [3] (80 μg/eye IVT) is 0.0078. Also, the “DARC count, FP conditions” value in series [3] (FP 2, 20, 80 μg/eye IVT, baseline subtracted, listed as FP) is recorded as “lowest DARC count; also recorded: dose-dependent effect”. Besides, the “DARC count at highest FP dose” value in series [3] (FP (H) = 80 μg/eye IVT, listed as FP) is “complete inhibition of DARC formation; also recorded: significant reduction compared to Sham control”. Moreover, in series [4] (FP 2, 20, 80 μg/eye IVT, FIG. 17B), the “RGC counts versus FP dose” value is “increased with dose increase”. For the same substance, the “RGC counts in eyes after treatment” value in series [4] (summary) is “RGC counts increased”. Also, the “FP4-CNP36 levels in treated eyes (OS)” value in series [5] is “correlated to the dose amount”.
